≈ marks a conversion by molar mass, not a printed value. Like-named read-outs stand apart in the source and are kept apart here. Marks after values point to notes of the source that are not given here.
What was measured:
[1] = system: TC-83 strain of VEEV; type: cell-based, Venezuelan equine encephalitis virus
[2] = system: TC-83 strain of VEEV; type: cell-based, Venezuelan equine encephalitis virus; remark: listed apart in the source
[3] = system: TC-83 strain of VEEV; type: cell-based, Venezuelan equine encephalitis virus; remark: listed apart in the source
[4] = system: Vero cells
[5] = system: intracellular CTP pools; type: cell-based
[6] = system: TC-83 VEEV; assay: microbe, parasite or virus in culture; type: cell-based, Venezuelan equine encephalitis virus
[7] = system: TC-83 VEEV; design: species or system C3H/HeN mice; conditions: mouse, in vivo
[8] = system: TrD VEEV; design: species or system ICR mice; conditions: mouse, in vivo
[9] = system: Vero cells; remark: listed apart in the source
[10] = system: TC-83 VEEV; design: species or system C3H/HeN mice; conditions: mouse, in vivo; remark: listed apart in the source
[11] = in vivo, iv; cited from earlier work
[12] = system: TC-83 VEEV; assay: microbe, parasite or virus in culture; type: cell-based; conditions: Venezuelan equine encephalitis virus, read-out: EC50 (neutral red uptake)

Row | Compound | EC50 (NR) [1] [µg/mL] | EC90 [2] [µg/mL] | EC50 (vis) [3] | IC50 [4] [µg/mL] | IC50 (visual inspection) [9] [µg/mL] | IC50 (neutral red uptake) [4] [µg/mL] | further results
1 | Nc1ccn([C@H]2C[C@@H](CO)[C@H](O)[C@@H]2O)c(=O)n1 (racemic) [(+/-)-carbodine, Carbocyclic cytidine] | 0.70 (≈ 2.9 µM) | 1.7 (≈ 7.05 µM) | 0.68 µg/mL (≈ 2.82 µM) | >100 |  |  | 
2 | Nc1ccn([C@H]2C[C@@H](CO)[C@H](O)[C@@H]2O)c(=O)n1 [(+)-carbodine] | >100 | >100 | >100 µg/mL | >100 |  |  | Intracellular CTP reduction [5]: not reduced; Activity against TC-83 vaccine strain of VEEV [1]: no activity
3 | Nc1ccn([C@@H]2C[C@H](CO)[C@@H](O)[C@H]2O)c(=O)n1 [(-)-carbodine] | 0.2 ± 0.0 (≈ 0.829 µM) | 0.4 ± 0.2 (≈ 1.66 µM) | 0.3 ± 0.2 ^f μg/ml | >100 | >100 | >100 | Cytidine concentration at which activity was completely abolished [6]: 10 to 32 µg/mL; Reduction in intracellular CTP [5]: 65%; Reduction of brain virus titer vs placebo [7]: 10 fold; Survival [8]: all animals died; Mean time to death vs placebo ([8]; ip): slight, but significant, extension; Mortality rate [10]: 50%
4 | Nc1ccn([C@@H]2C=C(CO)[C@@H](O)[C@H]2O)c(=O)n1 [Cyclopentenyl cytosine] |  |  |  |  |  |  | Adverse effects in human patients with solid tumors [11]: hypotension and death
5 | Nc1ccn([C@@H]2O[C@H](CO)[C@@H](O)[C@H]2O)c(=O)n1 [Cytidine, cytidine, reference compound] |  |  |  |  |  |  | EC50 ([6]; Venezuelan equine encephalitis virus, read-out: EC50 (visual inspection)): > 100 µg/mL; EC50 [12]: > 100 µg/mL
6 | Interferon alfacon-1 | 0.05 | 0.06 | 0.06 µg/mL | >10 | >10 | >10 | EC50 (visual inspection) [6]: 0.06 µg/mL
